Test results: PMC7857503, “Multivalent lipid targeting by the calcium-independent C2A domain of synaptotagmin-like protein 4/granuphilin” (The Journal of Biological Chemistry, 2020)

Target: T1, Slp-4 C2A domain (synaptotagmin-like protein 4/granuphilin) (Homo sapiens, UniProt Q96C24)
T1 construct: gene SYTL4; C2A domain G352-S494; N-terminal GST cleaved by thrombin; E. coli BL21(DE3); cation-exchange purified, unmodified main peak
T1 sequence (Q96C24 352-494): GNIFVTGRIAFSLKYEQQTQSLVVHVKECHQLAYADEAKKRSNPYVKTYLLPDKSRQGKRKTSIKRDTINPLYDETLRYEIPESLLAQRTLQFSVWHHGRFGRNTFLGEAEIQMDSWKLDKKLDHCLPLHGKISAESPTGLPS
Assay: Trp-to-dansyl FRET, competitive displacement of protein from dansyl-PE liposomes
Format: binding
Settings: read-out: IC50 for IP6 (μM) ^a

## O=P(O)(O)O[C@H]1[C@H](OP(=O)(O)O)[C@@H](OP(=O)(O)O)[C@H](OP(=O)(O)O)[C@@H](OP(=O)(O)O)[C@H]1OP(=O)(O)O [IP6, D-myo-inositol-(1,2,3,4,5,6)-hexakisphosphate]
  IC50: 620 ± 80 µM
